This assay addresses T1, mNpr1 (Mus musculus, UniProt P18293).
T1 construct: host or cells: HEK-293, transient co-transfection with pGS-40F
T1 sequence (P18293 29-1057): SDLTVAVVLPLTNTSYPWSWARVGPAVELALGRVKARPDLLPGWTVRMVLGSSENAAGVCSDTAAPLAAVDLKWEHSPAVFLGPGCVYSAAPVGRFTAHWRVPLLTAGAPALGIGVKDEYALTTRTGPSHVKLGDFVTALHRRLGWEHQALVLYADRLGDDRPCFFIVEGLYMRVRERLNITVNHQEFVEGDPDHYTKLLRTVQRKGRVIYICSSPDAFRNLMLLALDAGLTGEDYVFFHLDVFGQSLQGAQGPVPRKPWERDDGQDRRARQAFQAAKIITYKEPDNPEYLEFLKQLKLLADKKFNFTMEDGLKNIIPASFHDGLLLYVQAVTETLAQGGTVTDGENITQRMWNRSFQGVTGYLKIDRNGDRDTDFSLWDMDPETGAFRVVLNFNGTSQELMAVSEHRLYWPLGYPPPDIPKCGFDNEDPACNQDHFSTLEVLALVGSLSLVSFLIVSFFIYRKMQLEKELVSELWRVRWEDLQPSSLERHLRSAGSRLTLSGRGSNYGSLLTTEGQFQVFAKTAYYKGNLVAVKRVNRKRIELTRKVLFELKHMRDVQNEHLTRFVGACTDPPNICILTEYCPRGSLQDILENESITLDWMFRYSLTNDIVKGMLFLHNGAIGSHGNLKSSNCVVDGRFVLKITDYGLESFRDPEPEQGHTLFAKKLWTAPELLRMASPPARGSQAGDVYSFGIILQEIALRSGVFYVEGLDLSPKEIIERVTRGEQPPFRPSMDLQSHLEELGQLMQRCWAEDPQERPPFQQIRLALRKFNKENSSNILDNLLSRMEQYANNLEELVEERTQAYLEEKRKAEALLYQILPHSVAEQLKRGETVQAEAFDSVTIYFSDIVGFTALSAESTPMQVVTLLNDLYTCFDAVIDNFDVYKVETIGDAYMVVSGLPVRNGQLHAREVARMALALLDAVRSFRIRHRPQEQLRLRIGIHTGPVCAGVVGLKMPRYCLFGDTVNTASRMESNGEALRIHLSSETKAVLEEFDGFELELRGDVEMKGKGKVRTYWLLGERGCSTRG
As to the kind of experiment: GloSensor assay, HEK-293 cells transiently expressing mNpr1 and pGS-40F. The format is cell-based. Particulars: for IC50: 1 nM mNppb 5 minutes after compound, read-out: IC50 [μM] (mean ± SEM), mNpr1; for Ki: calculated with Cheng-Prusoff equation from Table 6, read-out: Ki mNpr1 GloSensor™ [μM] (mean ± SEM). The protocol: HEK-293 cells (American Type Culture Collection “ATTC,” Manassas, Va.) were cultured in DMEM/F12 supplemented with 2 mM L-glutamine, 10% FBS, 100 U/ml penicillin, and 100 μg/ml streptomycin. For transient expression, 8×10^5 cells were seeded in 6-wells, cultured for 24 hours, and then transfected using TransIT®-293 (Mirus, Madison, Wis.) according to the manufacturer's instructions. After transfection (48 hours), cells were used to measure intracellular cGMP production. HEK-293 cell clones stably expressing pGloSensor™-40F alone (HEK-cGMP-sensor cells) or in addition, human Npr1 (“hNpr1”) (HEK-hNpr1-cGMP-sensor cells) or human Npr2 (HEK-hNpr2-cGMP-sensor cells) were generated by co-transfection with pEAK8-GFP and selection with 1 μg/ml puromycin. Stable expression of transgenes was verified by measuring ligand-induced cGMP production with the cGMP biosensor.
Before the measurement (24 hours in advance), 3×10^4 cells were seeded into white 96-well plates (PerkinElmer, Waltham, Mass.), coated with 0.1% poly(D-lysine), and assays conducted as recommended by the manufacturer (Promega). Medium was aspirated and cells were loaded for two hours at room temperature with 2% GoSensor™ reagent diluted in CO2-independent media (ThermoFisher) supplemented with 2 mM L-glutamine and 10% FBS (assay medium). Luminescence was measured on a BioTek Synergy™ NEO (Winooski, Vt.) plate reader at room temperature. After a baseline measurement of 3-5 minutes, assay medium as a control or assay medium with agonist was manually added, and luminescence was measured for 30 minutes at ˜ 1/60 Hz. For compounds tested for Npr1 and Npr2 inhibition, the compounds were added after baseline measurements, and luminescence was read for 5 minutes before addition of agonist. Luminescence was then normalized to baseline measurements and plotted against the time. Ligand-induced changes of cGMP production were quantified by determining the area under the curve. To determine efficacy and potency of agonists, ligand-induced changes were normalized to medium only addition and plotted against the ligand concentration. […] To quantify […] of compounds, compound-induced changes of agonist-induced cGMP production were normalized to vehicle controls, plotted against compound concentration, and fit with a four-parameter logistic regression. Effects of A-71915 on basal mNpr1 activity were fitted with a bell-shaped regression (equation indicated below).
Because the Npr1 receptor is a ligand-dependent guanylate cyclase, measuring agonist-induced changes in intracellular cGMP levels was used to examine inhibition of Npr1. To measure the production of cGMP by Npr1, a circular permutated Firefly luciferase molecule which was functionally linked to the cGMP binding domain of human PDE5 (GloSensor™ technology pGS-40F) was used, as described in Example 1. This reporter molecule together with a luciferase substrate (GoSensor™ reagent) and a sensitive method for detection of luciferase activity (emitted light) permitted real-time measurement of cGMP levels in live cells (FIG. 1A). The cGMP sensor was expressed in HEK293 cells and luciferase activity after stimulation with the NO-donor sodium nitroprusside (SNP), which activates ubiquitously expressed soluble guanylate cyclases, was examined. […] Next, mNpr1 and the cGMP sensor were transiently expressed in HEK293 cells and agonist dependent receptor activation was examined. […] Next, the effects of A-71915 on mNpr1 were tested.
For Table 6, HEK-293 cells transiently expressing mNpr1 and pGS-40F were stimulated with 1 nM mNppb 5 minutes after addition of candidate compounds or A-71915 and luminescence was measured for 30 minutes. Inhibitors were titrated to calculate apparent IC50 values, as described in methods.

As for `CCC(CC)c1cc([C@H]2CN3CC[C@H]2C[C@@H]3CNS(=O)(=O)c2cccs2)nc(-c2ccncc2)n1` [JS-3, N-(((2R,4S,5R)-5-(6-(pentan-3-yl)-2-(pyridin-4-yl)pyrimidin-4-yl)quinuclidin-2-yl)methyl)thiophene-2-sulfonamide], the 50% inhibitory concentration (IC50) (in general, the midpoint of a concentration-inhibition curve) turned out to be 12 ± 1.8 µM and the inhibition constant Ki – broadly, a dissociation constant, usually derived from enzyme kinetics or from competition with a known ligand – was 0.25 ± 0.036 µM.

Take `COc1cc(CN2CCC(C)(NC(C)=O)CC2)cc(-c2ccncc2)c1` [JS-4, N-(1-(3-methoxy-5-(pyridin-4-yl)benzyl)-4-methylpiperidin-4-yl)acetamide]: the IC50 was 11 ± 3.4 µM and the Ki is 0.22 ± 0.07 µM.

Turning to `Cc1noc(C)c1-c1cc(-c2ccccc2Oc2ccccc2)cn2cncc12` [JS-5, 3,5-dimethyl-4-(6-(2-phenoxyphenyl)imidazo[1,5-a]pyridin-8-yl)isoxazole], the IC50 was 20 ± 12 µM and the Ki was 0.42 ± 0.265 µM.

Consider `COc1ccccc1-c1n[nH]c2ncc(C(=O)NCc3cccnc3)nc12` [JS-6, 3-(2-methoxyphenyl)-N-(pyridin-3-ylmethyl)-1H-pyrazolo[3,4-b]pyrazine-5-carboxamide], for which the IC50 was 82 ± 68 µM and the Ki is 1.69 ± 1.39 µM.

`Cc1nn2c(c1-c1ccccc1OCc1ccccc1)N(C(=O)Cc1ccc3c(c1)OCO3)CCC2` [JS-8, 2-(benzo[d][1,3]dioxol-5-yl)-1-(3-(2-(benzyloxy)phenyl)-2-methyl-6,7-dihydropyrazolo[1,5-a]pyrimidin-4(5H)-yl)ethan-1-one]: the concentration for half-maximal inhibition (IC50) came out at 4.7 ± 0.3 µM and the Ki is 0.1 ± 0.006 µM.

Take `Cc1nn2c(c1-c1ccccc1OCc1ccccc1)N(C(=O)Cc1ccccn1)CCC2` [JS-9, 1-(3-(2-(benzyloxy)phenyl)-2-methyl-6,7-dihydropyrazolo[1,5-a]pyrimidin-4(5H)-yl)-2-(pyridin-2-yl)ethan-1-one]: the IC50 stood at 28 µM and the Ki is 0.57 ± 0.0004 µM.

For the compound `Cc1nn2c(c1-c1ccccc1Oc1ccccc1)N(C(=O)Cc1ccc3c(c1)OCO3)CCC2` [JS-10, 2-(benzo[d][1,3]dioxol-5-yl)-1-(2-methyl-3-(2-phenoxyphenyl)-6,7-dihydropyrazolo[1,5-a]pyrimidin-4(5H)-yl)ethan-1-one], the IC50 turned out to be 15 ± 1.8 µM and the Ki is 0.31 ± 0.037 µM.

For the compound `Cc1cc(CNC(=O)c2ccc3c(c2)n(CC2CC2)c(=O)n3C2CCCCC2)on1` [JS-11, 1-cyclohexyl-3-(cyclopropylmethyl)-N-((3-methylisoxazol-5-yl)methyl)-2-oxo-2,3-dihydro-1H-benzo[d]imidazole-5-carboxamide], the IC50 is 4.9 ± 1.5 µM and the Ki is 0.1 ± 0.03 µM.

As for `COc1ccc(C2(C(=O)N3CCC4(CC3)c3nccn3-c3ccccc3CN4C)CC2)cc1` [JS-12, (1-(4-methoxyphenyl)cyclopropyl)(5-methyl-5,6-dihydrospiro[benzo[f]imidazo[1,2-a][1,4]diazepine-4,4′-piperidin]-1′-yl)methanone], the IC50 worked out at 13 ± 0.3 µM and the Ki was 0.26 ± 0.006 µM.

In the case of `N#Cc1ccccc1CN1CCCC(C(=O)NCc2ccccc2)CCNC(=O)CC1` (stereo not shown) [JS-13, N-benzyl-1-(2-cyanobenzyl)-4-oxo-1,5-diazacycloundecane-8-carboxamide], the IC50 is 10 ± 2.2 µM and the Ki was 0.21 ± 0.046 µM.

In the case of `CN(Cc1ccccc1)C(=O)c1cn2ccnc(-c3ccccc3)c2n1` [JS-14, N-benzyl-N-methyl-8-phenylimidazo[1,2-a]pyrazine-2-carboxamide], the IC50 was found to be 15.8 ± 16 µM and the Ki was 0.32 ± 0.329 µM.

The values are drawn from patent US11324725B2, “Compositions and methods for the inhibition of pruritus” (The United States of America, as represented by the …, priority 2017, dated 2022).
